“Also recorded” adds a separate entry of the source. Blank lines part the entries; values can stand above or below the molecule they belong to. Where no end group is shown, it is not given here.
How the values were obtained:
ECE-1 [1] = target: T1, ECE-1 (Bos taurus, UniProt P42891); test: Protease inhibitor assay of ECE-1, solubilized CHO/ECE-1 membranes, big ET-1 conversion, pH 6.8; format: biochemical, bovine; conditions: for inhibition of ECE-1: sensitivity to protease inhibitors, Table 2; for Percent ECE-1 activity remaining with inhibitor (of control): Inhibitor 100 μM, solubilized CHO/ECE-1 membranes, control 100
T1 construct: made in house
T1 sequence (P42891 1-754): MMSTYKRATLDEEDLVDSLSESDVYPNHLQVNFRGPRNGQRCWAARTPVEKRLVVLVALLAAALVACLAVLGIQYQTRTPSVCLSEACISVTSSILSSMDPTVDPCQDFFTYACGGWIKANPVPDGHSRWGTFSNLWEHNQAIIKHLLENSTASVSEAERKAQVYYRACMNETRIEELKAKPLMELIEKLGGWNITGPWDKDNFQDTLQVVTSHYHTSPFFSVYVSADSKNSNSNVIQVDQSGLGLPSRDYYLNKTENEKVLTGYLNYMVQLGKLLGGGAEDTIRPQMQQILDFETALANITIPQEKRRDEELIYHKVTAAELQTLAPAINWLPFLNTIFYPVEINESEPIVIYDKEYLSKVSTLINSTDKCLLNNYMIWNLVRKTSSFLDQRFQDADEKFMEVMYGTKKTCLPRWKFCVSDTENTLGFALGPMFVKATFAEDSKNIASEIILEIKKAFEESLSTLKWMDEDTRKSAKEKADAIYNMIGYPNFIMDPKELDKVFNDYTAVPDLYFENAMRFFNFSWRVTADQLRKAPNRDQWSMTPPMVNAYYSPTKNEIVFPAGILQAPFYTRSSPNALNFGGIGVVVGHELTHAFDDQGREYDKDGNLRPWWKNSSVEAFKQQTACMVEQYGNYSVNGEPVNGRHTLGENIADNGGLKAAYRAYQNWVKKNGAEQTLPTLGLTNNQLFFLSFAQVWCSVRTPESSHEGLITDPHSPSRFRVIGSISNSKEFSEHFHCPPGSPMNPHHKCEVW
Protocol: Solubilized crude membranes were prepared in parallel from CHO/ECE-2 and CHO/ECE-1 cells as described (Xu et al., 1994). For protease inhibitor studies, membranes were prepared without protease inhibitors. Standard reaction mixtures for the ECE-2 assay (50 μl) contained 0.1M 2-[N-morpholino]ethanesulfonic acid (MES) buffer (pH 5.5), 0.5M NaCl, 0.1 μM human big ET-1 and an enzyme fraction. ECE-1 assay reactions contained 0.1M phosphate buffer (pH 6.8) instead of the MES buffer. For the pH profiling and isopeptide selectivity studies, the buffer solution (0.1M) or the substrate (0.1 μM) was substituted as designated. For the inhibitor studies, the reactions were preincubated at 37° C. with protease inhibitor or vehicle for 15 min. Reactions were started by the addition of substrate, and incubated at 37° C. for 30 min in siliconized 0.5-ml microcentrifuge tubes. […] The mixture was then directly assayed for mature ET-1 as described (Suzuki et al., 1989). Duplicate assay wells were used for each enzyme reaction. […] Protein concentrations were determined by the Bradford method (Bio-Rad) using IgG as standard.

ECE-2 [2] = target: T2, ECE-2 (Bos taurus, UniProt P0DPE2); test: Protease inhibitor assay of ECE-2, solubilized CHO/ECE-2 membranes, big ET-1 conversion, pH 5.5; format: biochemical, bovine; conditions: for inhibition of ECE-2: in vitro sensitivity to inhibitors; for Percent of control ECE-2 activity remaining with inhibitor: Inhibitor 100 μM, solubilized CHO/ECE-2 membranes, control 100
T2 construct: solubilized crude membranes or live cells
T2 sequence (P0DPE2 97-883): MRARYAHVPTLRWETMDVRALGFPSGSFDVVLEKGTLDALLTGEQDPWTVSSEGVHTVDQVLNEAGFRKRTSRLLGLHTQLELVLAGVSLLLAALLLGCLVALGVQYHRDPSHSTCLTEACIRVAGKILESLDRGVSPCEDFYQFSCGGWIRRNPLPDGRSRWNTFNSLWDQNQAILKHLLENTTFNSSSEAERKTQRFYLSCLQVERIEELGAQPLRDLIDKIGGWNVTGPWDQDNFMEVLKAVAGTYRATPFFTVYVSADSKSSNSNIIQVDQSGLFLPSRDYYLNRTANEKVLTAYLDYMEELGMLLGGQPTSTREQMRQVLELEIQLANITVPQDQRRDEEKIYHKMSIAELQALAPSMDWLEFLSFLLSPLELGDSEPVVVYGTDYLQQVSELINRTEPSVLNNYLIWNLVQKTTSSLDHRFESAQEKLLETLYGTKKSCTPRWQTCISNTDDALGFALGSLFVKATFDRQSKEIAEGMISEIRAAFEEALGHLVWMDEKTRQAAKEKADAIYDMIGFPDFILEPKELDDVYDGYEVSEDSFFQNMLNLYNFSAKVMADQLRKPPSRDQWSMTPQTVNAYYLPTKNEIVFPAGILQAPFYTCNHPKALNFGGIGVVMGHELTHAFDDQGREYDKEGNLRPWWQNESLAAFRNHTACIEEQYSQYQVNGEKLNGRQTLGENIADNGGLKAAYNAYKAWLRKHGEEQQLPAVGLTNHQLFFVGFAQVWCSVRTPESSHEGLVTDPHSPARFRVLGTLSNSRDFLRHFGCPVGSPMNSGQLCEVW
Protocol: Solubilized crude membranes were prepared in parallel from CHO/ECE-2 and CHO/ECE-1 cells as described (Xu et al., 1994). For protease inhibitor studies, membranes were prepared without protease inhibitors. Standard reaction mixtures for the ECE-2 assay (50 μl) contained 0.1M 2-[N-morpholino]ethanesulfonic acid (MES) buffer (pH 5.5), 0.5M NaCl, 0.1 μM human big ET-1 and an enzyme fraction. […] For the inhibitor studies, the reactions were preincubated at 37° C. with protease inhibitor or vehicle for 15 min. Reactions were started by the addition of substrate, and incubated at 37° C. for 30 min in siliconized 0.5-ml microcentrifuge tubes. […] The mixture was then directly assayed for mature ET-1 as described (Suzuki et al., 1989). Duplicate assay wells were used for each enzyme reaction.

ECE-2 [3] = target: T2, ECE-2; test: Double-transfection live cell assay: mature ET-1 secretion by CHO/ECE-2 cells transfected with preproET-1 cDNA; format: cell-based, bovine
Protocol: Production of mature ET-1 by CHO/ECE-2 cells transiently transfected with preproET-1 cDNA: Cleavage of endogenously produced big ET-1. Doubly transfected cells were cultured for 12 h in the absence or presence of the designated concentrations of ECE inhibitors, and mature ET-1 in the conditioned medium was determined. Negative control studies with parental CHO cells are shown by dashed lines.
CHO/ECE-2 cells and untransfected CHO cells were transiently transfected in parallel with a preproET-1 construct, and mature ET-1 secreted from these cells into the medium was determined by EIA.
CHO-K1 cells were cultured as described (Xu et al., 1994). Since many batches of tissue culture-grade trypsin preparations contained high levels of metalloprotease contaminants with an ECE-like activity, a highly purified crystallized preparation of trypsin (Sigma, Catalog No. T7418) was dissolved in phosphate-buffered saline at 0.013% (w/v) and used for all trypsinization procedures. […] Twelve hours after the transient transfection, cells were refed with fresh medium with or without ECE inhibitors. The medium was conditioned for an additional 12 h and directly subjected to enzyme immunoassay (EIA) for mature ET-1 (Suzuki et al., 1989).

ECE-1 [4] = target: T1, ECE-1; test: Coculture of CHO/ECE-1 and CHO/preproET-1 cells: cleavage of exogenously supplied big ET-1; format: cell-based, bovine
Protocol: (§1) Production of mature ET-1 by CHO/ECE-1-CHO/preproET-1 and CHO/ECE-2-CHO/preproET-1 cocultures: Cleavage of exogenously supplied big ET-1. […] Negative control experiments were performed by coculturing parental CHO cells with CHO/preproET-1 cells. Open circles, CHO/ET-1+CHO/ECE-1 (Phos); closed circles, CHO/ET-1+CHO/ECE-1 (FR); open squares, CHO/ET-1+CHO/ECE-2 (Phos); closed squares, CHO/ET-1+CHO/ECE-2 (FR); open triangles, CHO/ET-1+CHO-K1 (Phos).
(§2) This was tested by coculturing the stable transfectant CHO/preproET-1 cells with either CHO/ECE-1 or CHO/ECE-2 cells, and determining the amount of mature ET-1 in the medium.

ECE-2 [5] = target: T2, ECE-2; test: Coculture of CHO/ECE-2 and CHO/preproET-1 cells: cleavage of exogenously supplied big ET-1; format: cell-based, bovine; conditions: up to 100 μM
Protocol: as §1, §2

[6] = Stability of big and mature endothelin isopeptides with crude membrane proteins, ECE-2 assay conditions (pH 5.6); format: physicochemical
ECE-1 [7] = target: T1, ECE-1; test: Substrate kinetics and isopeptide substrate selectivity of ECE-1; format: biochemical, bovine; conditions: big ET-1 0.01-10 μM; 20 μg crude membrane proteins, 30 min; read-out: apparent Km of ECE-1
Protocol: Solubilized crude membranes were prepared in parallel from CHO/ECE-2 and CHO/ECE-1 cells as described (Xu et al., 1994). For protease inhibitor studies, membranes were prepared without protease inhibitors. Standard reaction mixtures for the ECE-2 assay (50 μl) contained 0.1M 2-[N-morpholino]ethanesulfonic acid (MES) buffer (pH 5.5), 0.5M NaCl, 0.1 μM human big ET-1 and an enzyme fraction. ECE-1 assay reactions contained 0.1M phosphate buffer (pH 6.8) instead of the MES buffer. For the pH profiling and isopeptide selectivity studies, the buffer solution (0.1M) or the substrate (0.1 μM) was substituted as designated. For the inhibitor studies, the reactions were preincubated at 37° C. with protease inhibitor or vehicle for 15 min. Reactions were started by the addition of substrate, and incubated at 37° C. for 30 min in siliconized 0.5-ml microcentrifuge tubes. […] The mixture was then directly assayed for mature ET-1 as described (Suzuki et al., 1989). Duplicate assay wells were used for each enzyme reaction. For big ET-2 and big ET-3 conversion assays, mature ET-1 EIA (which fully cross-reacts with mature ET-2) and mature ET-3 EIA were used with human ET-2 and ET-3 as standards, respectively (Matsumoto et al., 1989). Protein concentrations were determined by the Bradford method (Bio-Rad) using IgG as standard.

ECE-2 [8] = target: T2, ECE-2; test: Substrate kinetics and isopeptide substrate selectivity of ECE-2; format: biochemical, bovine
Protocol: Isopeptide substrate selectivity of ECE-2. Substrates are: closed circles, big ET-1 (1-38); closed squares, big ET-2 (1-38); and closed triangles, big ET-3 (1-41 Amide). Activity is reported as conversion (fmol/30 min) vs μg of membrane protein.
Solubilized crude membranes were prepared in parallel from CHO/ECE-2 and CHO/ECE-1 cells as described (Xu et al., 1994). […] Standard reaction mixtures for the ECE-2 assay (50 μl) contained 0.1M 2-[N-morpholino]ethanesulfonic acid (MES) buffer (pH 5.5), 0.5M NaCl, 0.1 μM human big ET-1 and an enzyme fraction. […] For the pH profiling and isopeptide selectivity studies, the buffer solution (0.1M) or the substrate (0.1 μM) was substituted as designated. […] Reactions were started by the addition of substrate, and incubated at 37° C. for 30 min in siliconized 0.5-ml microcentrifuge tubes. […] The mixture was then directly assayed for mature ET-1 as described (Suzuki et al., 1989). Duplicate assay wells were used for each enzyme reaction. For big ET-2 and big ET-3 conversion assays, mature ET-1 EIA (which fully cross-reacts with mature ET-2) and mature ET-3 EIA were used with human ET-2 and ET-3 as standards, respectively (Matsumoto et al., 1989). Protein concentrations were determined by the Bradford method (Bio-Rad) using IgG as standard.

[9] = cartilage; literature; cited from earlier work
big ET-1 [10] = test: pH profile of ECE activity; format: biochemical, human
Protocol: FIG. 1B. pH profile of ECE-2. […] Buffers are: open squares, acetate; closed squares, MES; open circles, phosphate; closed circles, Tris; open triangles, glycine.
FIG. 1B is a pH profile of ECE-2. Optimal activity of ECE-2 is at pH 5.5 in contrast to the previously discovered ECE-1, which has optimal activity at pH 6.8. […] In all subsequent studies, ECE-2 assays were performed at pH 5.5. […] A majority of the ECE-2 activity in the CHO/ECE-2 cell homogenates was found in the membrane fraction. No significant ECE-2 activity was detected in the culture supernatants from CHO/ECE-2 cells.
Solubilized crude membranes were prepared in parallel from CHO/ECE-2 and CHO/ECE-1 cells as described (Xu et al., 1994). For protease inhibitor studies, membranes were prepared without protease inhibitors. Standard reaction mixtures for the ECE-2 assay (50 μl) contained 0.1M 2-[N-morpholino]ethanesulfonic acid (MES) buffer (pH 5.5), 0.5M NaCl, 0.1 μM human big ET-1 and an enzyme fraction. ECE-1 assay reactions contained 0.1M phosphate buffer (pH 6.8) instead of the MES buffer. For the pH profiling and isopeptide selectivity studies, the buffer solution (0.1M) or the substrate (0.1 μM) was substituted as designated. […] Protein concentrations were determined by the Bradford method (Bio-Rad) using IgG as standard.

big ET-1 [11] = conditions: cited from earlier work

Molecule: O=C(O)CNC(=O)C(CS)Cc1ccccc1 (stereo not shown) [Thiorphan]
inhibition of ECE-1 (ECE-1 [1]): not inhibited
inhibition of ECE-2 (ECE-2 [2]): not inhibited

Molecule: COc1c2c(c(O)c3c1C(O)Cc1cc(CC(C)O)c(C(=O)O)c(O)c1-3)C(=O)c1cccc(O)c1C2=O (stereo not drawn) [FR901533, 1,6,9,14-tetrahydroxy-3-(2-hydroxypropyl)-7-methoxy-8,13-dioxo-5,6,8,13-tetrahydro-benzo[α]naphthacene-2-carboxylate .cndot. Na]
IC50 (ECE-1 [1]; in vitro, pH 6.8): 2000 nM
inhibition of ECE-1 (ECE-1 [1]): inhibited
inhibition of ECE-2 (ECE-2 [2]): inhibited; also recorded: efficiently inhibits the conversion of big ET-1 by ECE-2 in vitro
IC50 (ECE-2 [2]; in vitro, pH 5.5): 3000 nM
inhibition of conversion in transfected CHO/ECE-2 cells (ECE-2 [3]; added to medium at up to 1 mM): did not appreciably inhibit the conversion
IC50 (ECE-1 [4]): ~1000 nM
inhibition of mature peptide production, CHO/ECE-2 coculture (ECE-2 [5]): not inhibited

Molecule: ET-1: Synthetic human ET-1; 21-amino-acid peptide
rate of degradation among isopeptides [6]: degraded at similar rates

Molecule: ET-2: Synthetic human ET-2 (CSCSSWLDKECVYFCHLDIIW; ends and bridges not checked; cysteine pairing not given here; UniProt P20800 49-69, looked up)
rate of degradation among isopeptides [6]: degraded at similar rates

inhibition of ECE-1 (ECE-1 [1]): not inhibited
inhibition of ECE-2 (ECE-2 [2]): not inhibited
Molecule: C[C@H](CS)C(=O)N1CCC[C@H]1C(=O)O [Captopril]

Molecule: big ET-1: Synthetic human big ET-1[1-38] (CSCSSLMDKECVYFCHLDIIWVNTPEHVVPYGLGSPRS; ends and bridges not checked; cysteine pairing not given here; UniProt P05305 53-90, looked up)
Km (ECE-1 [7]): 1 to 2 µM
relative rate of cleavage by ECE-2 (ECE-2 [8]; 20-40 μg membrane proteins, optimal pH): 100%
Km (ECE-2 [8]; big ET-1 0.01-10 μM, 20 μg crude membrane proteins, 30 min, read-out: apparent Km of ECE-2): 1 to 2 µM
rate of degradation among isopeptides [6]: degraded at similar rates

Molecule: O=S(=O)(O)c1cc[c]([Hg][Cl])cc1 [pCMS, p-chloromercuriphenylsulphonic acid]
Percent ECE-1 activity remaining with inhibitor (of control) (ECE-1 [1]): 136%
Percent of control ECE-2 activity remaining with inhibitor (ECE-2 [2]): 345%
inhibition of ECE-2 (ECE-2 [2]): augmented the activity of ECE-2

Molecule: ET-3: Synthetic human ET-3
rate of degradation among isopeptides [6]: degraded at similar rates

Molecule: N=C(N)c1ccc(CS(=O)(=O)F)cc1 [APMSF, 4-amidinophenylmethylsulphonyl fluoride]
Percent ECE-1 activity remaining with inhibitor (of control) (ECE-1 [1]): 107%
Percent of control ECE-2 activity remaining with inhibitor (ECE-2 [2]): 93%

Molecule: matrix metalloproteinase-3: matrix metalloprotease in cartilage, matrix metalloproteinase-3 (MMP-3; stromelysin-1)
pH optimum [9]: 5.3-5.5

total endothelin peptides converted to mature ET-1 (ECE-2 [3]; double-transfection assays): up to 40%
B1: ECE-2: novel membrane-bound metalloprotease; 787-amino-acid polypeptide, SEQ ID NO:2 (protein)
chain: MRARYAHVPTLRWETMDVRALGFPSGSFDVVLEKGTLDALLTGEQDPWTVSSEGVHTVDQVLNEAGFRKRTSRLLGLHTQLELVLAGVSLLLAALLLGCLVALGVQYHRDPSHSTCLTEACIRVAGKILESLDRGVSPCEDFYQFSCGGWIRRNPLPDGRSRWNNSNSLWDQNQAILKHLLENTTFNSSSEAERKTQRFYLSCLQVERIEELGAHALRDLIDKIGGWNVTGPWDQDNFMEVLKAVAGTYRATPFFTVYVSADSKSSNSNIIQVDQSGLFLPSRDYYLNRTANEKVLTAYLDYMEELGMLLGGQPTSTREQMRQVLELEIQLANITVPQDQRRDEEKIYHKMSIAELQALAPSMDWLEFLSFLLSPLELGDSEPVVVYGTDYLQQVSELINRTEPSVLNNYLIWNLVQKTTSSLDHRFESAQEKLLETLYGTKKSCTPRWQTCISNTDDALGFALGSLFVKATFDRQSKEIAEGMISEIRVAFEEALGHLVWMDEKTRQAAKEKADAIYDMIGFPDFILEPKELDDVYDGYEVSEDSFFQNMLNLYNFSAKVMADQLRKPPSRDQWSMTPQTVNAYYLPTKNEIVFPAGILQAPFYTCNHPQALNFGGIGVVMGHELTHAFDDQGREYDKEGNLRPWWQNESLAAFRNHTACIEEQYSQYQVNGEKLNGRQTLGENIADNGGLKAAYNAYKAWLRKHGEEQQLPAVGLTNHQLFFVGFAQVWCSVRTPESSHEGLVTDPHSPARFRVLGTLSNSRDFLRHFGCPVGSPMNSGQLCEVW
pH of optimal activity (big ET-1 [10]; conversion of big ET-1): 5.5
activity at neutral pH (6.8) (big ET-1 [10]; standard ECE-1 assay): virtually inactive

B2: ECE-1: type II membrane-bound metalloprotease that processed endogenously produced big ET-1 (protein, UniProt P42892 1-770, looked up)
Endothelin-converting enzyme 1: MRGVWPPPVSALLSALGMSTYKRATLDEEDLVDSLSEGDAYPNGLQVNFHSPRSGQRCWAARTQVEKRLVVLVVLLAAGLVACLAALGIQYQTRSPSVCLSEACVSVTSSILSSMDPTVDPCHDFFSYACGGWIKANPVPDGHSRWGTFSNLWEHNQAIIKHLLENSTASVSEAERKAQVYYRACMNETRIEELRAKPLMELIERLGGWNITGPWAKDNFQDTLQVVTAHYRTSPFFSVYVSADSKNSNSNVIQVDQSGLGLPSRDYYLNKTENEKVLTGYLNYMVQLGKLLGGGDEEAIRPQMQQILDFETALANITIPQEKRRDEELIYHKVTAAELQTLAPAINWLPFLNTIFYPVEINESEPIVVYDKEYLEQISTLINTTDRCLLNNYMIWNLVRKTSSFLDQRFQDADEKFMEVMYGTKKTCLPRWKFCVSDTENNLGFALGPMFVKATFAEDSKSIATEIILEIKKAFEESLSTLKWMDEETRKSAKEKADAIYNMIGYPNFIMDPKELDKVFNDYTAVPDLYFENAMRFFNFSWRVTADQLRKAPNRDQWSMTPPMVNAYYSPTKNEIVFPAGILQAPFYTRSSPKALNFGGIGVVVGHELTHAFDDQGREYDKDGNLRPWWKNSSVEAFKRQTECMVEQYSNYSVNGEPVNGRHTLGENIADNGGLKAAYRAYQNWVKKNGAEHSLPTLGLTNNQLFFLGFAQVWCSVRTPESSHEGLITDPHSPSRFRVIGSLSNSKEFSEHFRCPPGSPMNPPHKCEVW
pH optimum of previously discovered ECE-1 (big ET-1 [11]): 6.8
